{
  "source": "PubChem BioAssay AID248",
  "about": "(DTP/NCI, 2004)",
  "tested_on": "L1210 leukemia ip in BDF1 mice, survival T/C",
  "assay": "NCI In Vivo Anticancer Drug Screen. Data for tumor model L1210 Leukemia (intraperitoneal) in B6D2F1 (BDF1) mice",
  "conditions": "endpoint: mean survival time, higher = longer survival",
  "outline": "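Tumor was transplanted into mice, which were then dosed with test compound or vehicle alone. Survival was recorded for each group, and the treated figure was expressed relative to the control figure.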",
  "key": {"[1]": {"conditions": "dose: 100.0 mg/kg/injection, schedule: Q01DX001 (ip), vehicle: carboxymethylcellulose (CMC)"}, "[2]": {"conditions": "dose: 200.0 mg/kg/injection, schedule: Q01DX001 (ip), vehicle: carboxymethylcellulose (CMC)"}, "[3]": {"conditions": "dose: 400.0 mg/kg/injection, schedule: Q01DX001 (ip), vehicle: carboxymethylcellulose (CMC)"}},
  "note": "Where “and” joins values, the source holds several entries; their conditions need not be identical. Equal values may be shown once. Inconclusive results and toxic doses are left out.",
  "data": [
    {"smiles": "O=C(Nc1ccc(C(=O)O)cc1)Nc1cc(C(F)(F)F)ccc1Cl", "values": [
      {"measurement": "T/C", "setting": "[1]", "value": "93 % of control"},
      {"measurement": "T/C", "setting": "dose: 100.0 mg/kg/injection, schedule: Q01DX009 (ip), vehicle: carboxymethylcellulose (CMC)", "value": "95 % of control and 110 % of control"},
      {"measurement": "T/C", "setting": "dose: 100.0 mg/kg/injection, schedule: Q04DX002 (ip), vehicle: carboxymethylcellulose (CMC)", "value": "95 % of control and 97 % of control"},
      {"measurement": "T/C", "setting": "dose: 100.0 mg/kg/injection, schedule: Q04DX003 (ip), vehicle: carboxymethylcellulose (CMC)", "value": "94 % of control"},
      {"measurement": "T/C", "setting": "[2]", "value": "93 % of control"},
      {"measurement": "T/C", "setting": "dose: 200.0 mg/kg/injection, schedule: Q01DX009 (ip), vehicle: carboxymethylcellulose (CMC)", "value": "100 % of control and 90 % of control"},
      {"measurement": "T/C", "setting": "dose: 200.0 mg/kg/injection, schedule: Q04DX002 (ip), vehicle: carboxymethylcellulose (CMC)", "value": "93 % of control and 97 % of control"},
      {"measurement": "T/C", "setting": "dose: 200.0 mg/kg/injection, schedule: Q04DX003 (ip), vehicle: carboxymethylcellulose (CMC)", "value": "97 % of control"},
      {"measurement": "T/C", "setting": "[3]", "value": "93 % of control"},
      {"measurement": "T/C", "setting": "dose: 400.0 mg/kg/injection, schedule: Q01DX009 (ip), vehicle: carboxymethylcellulose (CMC)", "value": "92 % of control"},
      {"measurement": "T/C", "setting": "dose: 400.0 mg/kg/injection, schedule: Q04DX002 (ip), vehicle: carboxymethylcellulose (CMC)", "value": "96 % of control and 90 % of control"},
      {"measurement": "T/C", "setting": "dose: 400.0 mg/kg/injection, schedule: Q04DX003 (ip), vehicle: carboxymethylcellulose (CMC)", "value": "96 % of control"}
    ]},
    {"smiles": "COC(=O)c1ccc(N(C)Cc2cnc3[nH]c(N)nc(=S)c3n2)cc1", "values": [
      {"measurement": "T/C", "setting": "dose: 50.0 mg/kg/injection, schedule: Q01DX001 (ip), vehicle: saline with Tween-80", "value": "100 % of control"},
      {"measurement": "T/C", "setting": "dose: 100.0 mg/kg/injection, schedule: Q01DX001 (ip), vehicle: saline with Tween-80", "value": "94 % of control"},
      {"measurement": "T/C", "setting": "dose: 200.0 mg/kg/injection, schedule: Q01DX001 (ip), vehicle: saline with Tween-80", "value": "94 % of control"}
    ]},
    {"smiles": "C=C(c1cn(C(C)=O)c2ccccc12)c1cn(C(C)=O)c2ccccc12", "values": [
      {"measurement": "T/C", "setting": "dose: 100.0 mg/kg/injection, schedule: Q04DX003 (ip), vehicle: saline with Tween-80", "value": "95 % of control"}
    ]},
    {"smiles": "CCCCOC1NC(=O)NC(=O)C1=[N+]=[N-]", "note": "(stereo unspecified)", "values": [
      {"measurement": "T/C", "setting": "dose: 50.0 mg/kg/injection, schedule: Q04DX003 (ip), vehicle: saline with Tween-80", "value": "98 % of control"},
      {"measurement": "T/C", "setting": "dose: 200.0 mg/kg/injection, schedule: Q04DX003 (ip), vehicle: saline with Tween-80", "value": "102 % of control"}
    ]},
    {"smiles": "O=S1(=O)CCCCC1c1ccccc1", "note": "(stereo unspecified)", "values": [
      {"measurement": "T/C", "setting": "dose: 100.0 mg/kg/injection, schedule: Q01DX001 (ip), vehicle: saline", "value": "87 % of control"},
      {"measurement": "T/C", "setting": "dose: 100.0 mg/kg/injection, schedule: Q01DX009 (ip), vehicle: saline", "value": "98 % of control"},
      {"measurement": "T/C", "setting": "dose: 100.0 mg/kg/injection, schedule: Q04DX003 (ip), vehicle: saline", "value": "122 % of control"},
      {"measurement": "T/C", "setting": "dose: 200.0 mg/kg/injection, schedule: Q01DX001 (ip), vehicle: saline", "value": "95 % of control"},
      {"measurement": "T/C", "setting": "dose: 200.0 mg/kg/injection, schedule: Q01DX009 (ip), vehicle: saline", "value": "87 % of control"},
      {"measurement": "T/C", "setting": "dose: 200.0 mg/kg/injection, schedule: Q04DX003 (ip), vehicle: saline", "value": "97 % of control"},
      {"measurement": "T/C", "setting": "dose: 400.0 mg/kg/injection, schedule: Q01DX001 (ip), vehicle: saline", "value": "93 % of control"},
      {"measurement": "T/C", "setting": "dose: 400.0 mg/kg/injection, schedule: Q04DX003 (ip), vehicle: saline", "value": "98 % of control"}
    ]},
    {"smiles": "CCC[As](=O)(O)CC(C)C", "values": [
      {"measurement": "T/C", "setting": "dose: 6.25 mg/kg/injection, schedule: Q01DX001 (ip), vehicle: saline", "value": "102 % of control"},
      {"measurement": "T/C", "setting": "dose: 6.25 mg/kg/injection, schedule: Q01DX009 (ip), vehicle: saline", "value": "119 % of control"},
      {"measurement": "T/C", "setting": "dose: 12.5 mg/kg/injection, schedule: Q01DX001 (ip), vehicle: saline", "value": "98 % of control"},
      {"measurement": "T/C", "setting": "dose: 12.5 mg/kg/injection, schedule: Q01DX009 (ip), vehicle: saline", "value": "101 % of control and 108 % of control"},
      {"measurement": "T/C", "setting": "dose: 12.5 mg/kg/injection, schedule: Q04DX003 (ip), vehicle: saline", "value": "94 % of control"},
      {"measurement": "T/C", "setting": "dose: 25.0 mg/kg/injection, schedule: Q01DX001 (ip), vehicle: saline", "value": "101 % of control"},
      {"measurement": "T/C", "setting": "dose: 25.0 mg/kg/injection, schedule: Q01DX009 (ip), vehicle: saline", "value": "162 % of control"},
      {"measurement": "T/C", "setting": "dose: 25.0 mg/kg/injection, schedule: Q04DX002 (ip), vehicle: saline", "value": "97 % of control"},
      {"measurement": "T/C", "setting": "dose: 25.0 mg/kg/injection, schedule: Q04DX003 (ip), vehicle: saline", "value": "113 % of control"},
      {"measurement": "T/C", "setting": "dose: 50.0 mg/kg/injection, schedule: Q01DX001 (ip), vehicle: saline", "value": "104 % of control"},
      {"measurement": "T/C", "setting": "dose: 50.0 mg/kg/injection, schedule: Q04DX002 (ip), vehicle: saline", "value": "103 % of control"},
      {"measurement": "T/C", "setting": "dose: 50.0 mg/kg/injection, schedule: Q04DX003 (ip), vehicle: saline", "value": "95 % of control"}
    ]},
    {"smiles": "Nc1nc(N)nc(CC(=O)O)n1", "values": [
      {"measurement": "T/C", "setting": "dose: 50.0 mg/kg/injection, schedule: Q01DX001 (ip), vehicle: carboxymethylcellulose (CMC)", "value": "95 % of control"},
      {"measurement": "T/C", "setting": "[1]", "value": "90 % of control"},
      {"measurement": "T/C", "setting": "[2]", "value": "95 % of control"},
      {"measurement": "T/C", "setting": "[3]", "value": "93 % of control"}
    ]},
    {"smiles": "CC(=O)N(c1ccccc1OS(C)(=O)=O)S(C)(=O)=O", "values": [
      {"measurement": "T/C", "setting": "dose: 100.0 mg/kg/injection, schedule: Q04DX003 (ip), vehicle: Klucel (hydroxypropylcellulose) (HPC)", "value": "109 % of control"},
      {"measurement": "T/C", "setting": "dose: 200.0 mg/kg/injection, schedule: Q04DX003 (ip), vehicle: Klucel (hydroxypropylcellulose) (HPC)", "value": "100 % of control"},
      {"measurement": "T/C", "setting": "dose: 400.0 mg/kg/injection, schedule: Q04DX003 (ip), vehicle: Klucel (hydroxypropylcellulose) (HPC)", "value": "104 % of control"}
    ]},
    {"smiles": "COCn1c(C(=O)c2ccc(OC)cc2)cc2ccccc21", "values": [
      {"measurement": "T/C", "setting": "dose: 100.0 mg/kg/injection, schedule: Q04DX002 (ip), vehicle: Klucel (hydroxypropylcellulose) (HPC)", "value": "102 % of control"},
      {"measurement": "T/C", "setting": "dose: 200.0 mg/kg/injection, schedule: Q04DX002 (ip), vehicle: Klucel (hydroxypropylcellulose) (HPC)", "value": "95 % of control"},
      {"measurement": "T/C", "setting": "dose: 400.0 mg/kg/injection, schedule: Q04DX002 (ip), vehicle: Klucel (hydroxypropylcellulose) (HPC)", "value": "98 % of control"}
    ]},
    {"smiles": "Oc1ccc2ccc(Cl)cc2c1", "values": [
      {"measurement": "T/C", "setting": "[1]", "value": "95 % of control"},
      {"measurement": "T/C", "setting": "[2]", "value": "90 % of control"},
      {"measurement": "T/C", "setting": "[3]", "value": "95 % of control"}
    ]}
  ]
}
